Test results as given in patent publication US7098231B2, “Viral polymerase inhibitors” (Boehringer Ingelheim International GmbH, priority 2003, dated 2006).
pIC50: −log10 of the molar value.

These compounds were tested against T1, hepatitis C virus RNA dependent polymerase (NS5B) (Hepatitis C virus genotype 1b, UniProt P26663) (assay: biochemical).
T1 construct: The C-terminal polyprotein cleavage product, NS5B, is the elongation subunit of the HCV replicase
Experimental: Inhibition of NS5B RNA Dependent RNA Polymerase Activity
The compounds of the invention were tested for inhibitory activity against the hepatitis C virus RNA dependent polymerase (NS5B), according to the protocol described in WO 03/010141.

T1 sequence (P26663 2420-3010): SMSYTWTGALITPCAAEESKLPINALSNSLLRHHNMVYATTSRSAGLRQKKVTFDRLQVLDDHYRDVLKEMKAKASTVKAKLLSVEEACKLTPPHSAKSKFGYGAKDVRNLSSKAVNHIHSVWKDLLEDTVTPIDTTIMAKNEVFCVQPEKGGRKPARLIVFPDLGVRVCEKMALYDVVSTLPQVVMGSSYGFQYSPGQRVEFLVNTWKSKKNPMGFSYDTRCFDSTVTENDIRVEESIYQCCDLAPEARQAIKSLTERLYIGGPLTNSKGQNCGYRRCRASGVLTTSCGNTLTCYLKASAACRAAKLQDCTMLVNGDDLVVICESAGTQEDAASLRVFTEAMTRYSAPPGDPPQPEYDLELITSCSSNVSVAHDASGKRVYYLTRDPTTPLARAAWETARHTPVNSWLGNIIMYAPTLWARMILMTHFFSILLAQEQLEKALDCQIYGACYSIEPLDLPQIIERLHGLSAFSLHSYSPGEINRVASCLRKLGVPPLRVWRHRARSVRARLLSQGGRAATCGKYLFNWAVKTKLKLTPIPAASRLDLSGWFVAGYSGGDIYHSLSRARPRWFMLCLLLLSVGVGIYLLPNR

Structure (SMILES) | pIC50
Cn1c(-c2ccoc2)c(C2CCCCC2)c2cc(C(=O)NS(C)(=O)=O)ccc21 [compound 203] | 4.70 to 6.00
COc1c(C(=O)NS(=O)(=O)c2ccccc2)ccc2c(C3CCCC3)c(-c3ccoc3)n(C)c12 [compound 202] | > 6.00
Cn1c(-c2ccoc2)c(C2CCCCC2)c2cc(C(=O)NS(=O)(=O)c3ccccc3)ccc21 [compound 204] | 4.70 to 6.00
COc1c(C(=O)NS(C)(=O)=O)ccc2c(C3CCCC3)c(-c3ccoc3)n(C)c12 [compound 201] | > 6.00
